Calls of active or inactive are those of the source. The calls are words filed in the database; no cut-off is given here. Side chains are listed from the residue outwards. Peptide text beside a SMILES is read from it. * marks the point of attachment. PEG24 = NCCOCCOCCOCCOCCOCCOCCOCCOCCOCCOCCOCCOCCOCCOCCOCCOCCOCCOCCOCCOCCOCCOCCOCCOCCC(=O)O; X2 = CC(=O)N1CCC(C(=O)N(CCCN2C3CCC2CC(NS(=O)(=O)c2ccc(C(=O)*)cc2)C3)c2ccc(C)c(Cl)c2)CC1; X1 = CC(=O)N1CCC(C(=O)N(CCCN2CCC(Cc3ccc(C(=O)*)cc3)CC2)c2ccc(C)c(Cl)c2)CC1; PEG12 = NCCOCCOCCOCCOCCOCCOCCOCCOCCOCCOCCOCCOCCC(=O)O
Key:
[1] = test system: Human immunodeficiency virus 1; assay: Antiviral activity against HIV-1 clinical isolate 97 TH-NP1525 infected in human CEMx174 5.25M7 cells assessed as reduction in p24 antigen level measured after 4 days by ELISA; type: functional, organism-based; settings: Human immunodeficiency virus 1, clinical isolate 97 TH-NP1525, CEMx174 5.25M7, 96 h
[2] = test system: Human immunodeficiency virus 1; assay: Antiviral activity against HIV-1 clinical isolate R5-91US-4 infected in human CEMx174 5.25M7 cells assessed as reduction in p24 antigen level measured after 4 days by ELISA; type: functional, organism-based; settings: Human immunodeficiency virus 1, clinical isolate R5-91US-4, CEMx174 5.25M7, 96 h
[3] = test system: Human immunodeficiency virus 1; assay: Antiviral activity against HIV-1 clinical isolate R5-J32228M4 infected in human CEMx174 5.25M7 cells assessed as reduction in p24 antigen level measured after 4 days by ELISA; type: functional, organism-based; settings: Human immunodeficiency virus 1, clinical isolate R5-J32228M4, CEMx174 5.25M7, 96 h
[4] = test system: Human immunodeficiency virus 1; assay: Antiviral activity against HIV-1 Bal-R5 infected in human CEMx174 5.25M7 cells assessed as reduction in p24 antigen level measured after 4 days by ELISA; type: functional, organism-based; settings: Human immunodeficiency virus 1, Bal-R5, CEMx174 5.25M7, 96 h
[5] = test system: Human immunodeficiency virus 1; assay: Antiviral activity against HIV-1 clinical isolate X4-89BZ167 infected in human CEMx174 5.25M7 cells assessed as reduction in p24 antigen level measured after 4 days by ELISA; type: functional, organism-based; settings: Human immunodeficiency virus 1, clinical isolate X4-89BZ167, CEMx174 5.25M7, 96 h
[6] = test system: Human immunodeficiency virus 1; assay: Antiviral activity against HIV-1 clinical isolate X4-92UG024 infected in human CEMx174 5.25M7 cells assessed as reduction in p24 antigen level measured after 4 days by ELISA; type: functional, organism-based; settings: Human immunodeficiency virus 1, clinical isolate X4-92UG024, CEMx174 5.25M7, 96 h
[7] = target: C-C chemokine receptor type 5 (Homo sapiens, UniProt P51681); assay: Antagonist activity at CCR5 (unknown origin) expressed in HEK293 cells co-expressing Galpha16 assessed as intracellular calcium change incubated for 60 mins by Fluo-4 AM calcium flux based FLIPR assay; type: functional, cell-based
Chain of C-C chemokine receptor type 5 (P51681 whole entry): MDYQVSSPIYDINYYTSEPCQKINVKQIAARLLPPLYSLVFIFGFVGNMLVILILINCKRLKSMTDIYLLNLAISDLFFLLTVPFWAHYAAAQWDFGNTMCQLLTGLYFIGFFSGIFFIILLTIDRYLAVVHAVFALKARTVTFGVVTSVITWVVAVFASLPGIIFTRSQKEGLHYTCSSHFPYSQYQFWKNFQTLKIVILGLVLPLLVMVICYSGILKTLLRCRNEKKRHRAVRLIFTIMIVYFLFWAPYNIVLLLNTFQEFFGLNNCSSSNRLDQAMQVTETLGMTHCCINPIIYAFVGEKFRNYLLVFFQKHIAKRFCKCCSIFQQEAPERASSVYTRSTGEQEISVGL

[8] = target: Envelope glycoprotein gp160 (Human immunodeficiency virus 1) (UniProt Q72502); assay: Binding affinity to HIV1 GP41 using GP41 NHR derived N39 peptide assessed as change in enthalpy by isothermal titration calorimetry
[9] = Proteolytic stability in rat kidney incubated upto 240 mins by RP-UHPLC analysis; type: ADME, tissue-based; settings: 4 h
[10] = Proteolytic stability in rat liver assessed as parent compound remaining incubated for 4 hrs by RP-UHPLC analysis; type: ADME, tissue-based; settings: read-out: Stability
[11] = target: Envelope glycoprotein gp160 (Human immunodeficiency virus 1) (UniProt Q72502); assay: Binding affinity to HIV1 GP41 using GP41 NHR derived N39 peptide assessed as melting temperature incubated for 30 mins by circular dichroism spectroscopy
[12] = target: Envelope glycoprotein gp160 (Human immunodeficiency virus 1) (UniProt Q72502); assay: Binding affinity to HIV1 GP41 using GP41 NHR derived N39 peptide assessed as binding constant by isothermal titration calorimetry
[13] = Proteolytic stability in rat plasma assessed as parent compound remaining incubated for 4 hrs by RP-UHPLC analysis; type: ADME, cell-free; settings: read-out: Stability
[14] = target: Envelope glycoprotein gp160 (Human immunodeficiency virus 1) (UniProt Q72502); assay: Binding affinity to HIV1 GP41 using GP41 NHR derived N39 peptide assessed as change in entropy by isothermal titration calorimetry
[15] = target: Envelope glycoprotein gp160 (Human immunodeficiency virus 1) (UniProt Q72502); assay: Binding affinity to HIV1 GP41 using GP41 NHR derived N39 peptide at 100 uM incubated for 30 mins by PAGE gel electrophoresis analysis

Molecule | EC50 [1] [nM] | EC50 [2] [nM] | EC50 [3] [nM] | EC50 [4] [nM] | EC50 [5] [nM] | EC50 [6] [nM] | IC50 [7] [nM] | deltaH [8] | Stability [9] | remaining at 4 h [10] [%] | Tm [11] [°C] | K [12] | remaining at 4 h [13] [%] | deltaS [14] [cal/mol/deg] | Activity [15]
CC(=O)N1CCC(C(=O)N(CCCN2CCC(Cc3ccc(C(N)=O)cc3)CC2)c2ccc(C)c(Cl)c2)CC1 | > 300 | 12.1 | 161 | 9.03 | > 300 | > 300 | 0.83 | – | – | – | – | – | – | – | –
CC[C@H](C)[C@H](NC(C)=O)C(=O)N[C@@H](CCC(=O)O)C(=O)N[C@@H](CCC(=O)O)C(=O)N[C@@H](CC(C)C)C(=O)N[C@H](C(=O)N[C@@H](CCCNC(=N)N)C(=O)N[C@@H](C)C(=O)N[C@@H](C)C(=O)N[C@@H](CCC(N)=O)C(=O)N[C@@H](CCC(=O)O)C(=O)N[C@@H](CCC(N)=O)C(=O)N[C@@H](CCC(N)=O)C(=O)N[C@@H](CCCNC(=N)N)C(=O)N[C@@H](CCCCN)C(=O)N[C@@H](CC(N)=O)C(=O)N[C@@H](CCC(=O)O)C(=O)N[C@@H](CCC(=O)O)C(=O)N[C@@H](C)C(=O)N[C@@H](CC(C)C)C(=O)N[C@@H](CCCNC(=N)N)C(=O)N[C@@H](CCC(=O)O)C(=O)N[C@@H](CC(C)C)C(=O)N[C@@H](CCCCNC(=O)CCOCCOCCOCCOCCOCCOCCOCCOCCOCCOCCOCCOCCNC(=O)c1ccc(CC2CCN(CCCN(C(=O)C3CCN(C(C)=O)CC3)c3ccc(C)c(Cl)c3)CC2)cc1)C(N)=O)[C@@H](C)CC (Ac-IEELIRAAQEQQRKNEEALRELK([PEG12-X1])-NH2) | 0.33 | 1.79 | 16.2 | 0.09 | 2.75 | 1.21 | 19.2 | -1.4 10^4cal/mol | Stable | > 72 | 56 | 2.1 10^5/M | 100 | -23.2 | Active
CC[C@H](C)[C@H](NC(C)=O)C(=O)N[C@@H](CCC(=O)O)C(=O)N[C@@H](CCC(=O)O)C(=O)N[C@@H](CC(C)C)C(=O)N[C@H](C(=O)N[C@@H](CCCNC(=N)N)C(=O)N[C@@H](C)C(=O)N[C@@H](C)C(=O)N[C@@H](CCC(N)=O)C(=O)N[C@@H](CCC(=O)O)C(=O)N[C@@H](CCC(N)=O)C(=O)N[C@@H](CCC(N)=O)C(=O)N[C@@H](CCCNC(=N)N)C(=O)N[C@@H](CCCCN)C(=O)N[C@@H](CC(N)=O)C(=O)N[C@@H](CCC(=O)O)C(=O)N[C@@H](CCC(=O)O)C(=O)N[C@@H](C)C(=O)N[C@@H](CC(C)C)C(=O)N[C@@H](CCCNC(=N)N)C(=O)N[C@@H](CCC(=O)O)C(=O)N[C@@H](CC(C)C)C(=O)N[C@@H](CCCCNC(=O)CCOCCOCCOCCOCCOCCOCCOCCOCCOCCOCCOCCOCCNC(=O)c1ccc(S(=O)(=O)NC2CC3CCC(C2)N3CCCN(C(=O)C2CCN(C(C)=O)CC2)c2ccc(C)c(Cl)c2)cc1)C(N)=O)[C@@H](C)CC (some centres not stated) (Ac-IEELIRAAQEQQRKNEEALRELK([PEG12-X2])-NH2) | 0.99 | 1.01 | 14.8 | 0.16 | 2.97 | 1.24 | 10.3 | -1.5 10^4cal/mol | Stable | > 72 | 56 | 1.97 10^5/M | – | -27.3 | Active
CC[C@H](C)[C@H](NC(=O)[C@H](CCCCN)NC(=O)[C@H](CCC(N)=O)NC(=O)[C@H](CCC(=O)O)NC(=O)[C@H](Cc1c[nH]c2ccccc12)NC(C)=O)C(=O)N[C@@H](CCC(=O)O)C(=O)N[C@@H](CCC(=O)O)C(=O)N[C@@H](CC(C)C)C(=O)N[C@@H](CC(C)C)C(=O)N[C@@H](CCCCN)C(=O)N[C@@H](CCCCN)C(=O)N[C@@H](C)C(=O)N[C@@H](CCC(=O)O)C(=O)N[C@@H](CCC(=O)O)C(=O)N[C@@H](CCC(N)=O)C(=O)N[C@@H](CCC(N)=O)C(=O)N[C@@H](CCCCN)C(=O)N[C@@H](CCCCN)C(=O)N[C@@H](CC(N)=O)C(=O)N[C@@H](CCC(=O)O)C(=O)N[C@@H](CCC(=O)O)C(=O)N[C@@H](CCC(=O)O)C(=O)N[C@@H](CC(C)C)C(=O)N[C@@H](CCCCN)C(=O)N[C@@H](CCCCN)C(=O)N[C@@H](CC(C)C)C(=O)N[C@@H](CCC(=O)O)C(=O)N[C@@H](CCCCN)C(=O)N[C@@H](CCCCNC(=O)CCOCCOCCOCCOCCOCCOCCOCCOCCOCCOCCOCCOCCOCCOCCOCCOCCOCCOCCOCCOCCOCCOCCOCCOCCNC(=O)c1ccc(CC2CCN(CCCN(C(=O)C3CCN(C(C)=O)CC3)c3ccc(C)c(Cl)c3)CC2)cc1)C(N)=O (Ac-WEQKIEELLKKAEEQQKKNEEELKKLEKK([PEG24-X1])-NH2) | – | – | – | 0.12 | – | – | – | – | – | – | – | – | – | – | –
Ac-IEELIRAAQEQQRKNEEALREL-NH2 | 3.7 | 275 | > 250 | 4.47 | 63.1 | 76.5 | > 10000 | -1 10^4cal/mol | – | – | – | 8.29 10^5/M | – | -6.92 | –
Ac-WEQKIEELLKKAEEQQKKNEEELKKLEK-NH2 | – | – | – | 2.45 | – | – | – | – | – | – | – | – | – | – | –
enfuvirtide | 2.54 | – | – | – | 48.2 | 24.6 | – | – | – | 45 | – | – | – | – | –

Reference: ChEMBL document CHEMBL5360545, “Multitargeted drug design strategy for discovery of short-peptide-based HIV-1 entry inhibitors with high potency” (Eur J Med Chem, 2023)
